Experimental data reported in US7666437B2, “Intranasal vaccine for use against disease caused by enterotoxigenic Escherichia coli” (Universidad Nacional Autonoma de Mexico, priority 2005, dated 2010).
“And” between values parts separate entries of the source, which are not always exact repeats. Equal entries are not always repeated. Ends that are not written are not given here.

What was measured:
strain H10407 of ETEC = system: strain H10407 of ETEC; design: species or system enterotoxigenic Escherichia coli; conditions: in vivo
T CD4+ lymphocytes = system: T CD4+ lymphocytes; design: species or system BALB/c mice; conditions: mouse, in vivo
T CD8+ lymphocytes = system: T CD8+ lymphocytes; design: species or system BALB/c mice; conditions: mouse, in vivo
IL-4 = system: IL-4; design: species or system BALB/c mice; conditions: mouse, in vivo
IL-10 = system: IL-10; design: species or system BALB/c mice; conditions: mouse, in vivo
[1] = system: children's sera after natural infection; format: binding
Dynamic light scattering = format: physicochemical; conditions: 1 mg/ml in 10 mm PBS pH 7.4; physiological conditions of pH and temperature
Procedure: Dynamic light scattering: One milliliter of 1 mg/ml CLE diluted in 10 mm PBS, pH 7.4 was used to evaluate the dynamic light scattering at different temperatures of 5, 15, 25, 35 and 37° C. Hydrodynamic diameter of CLE was determined using the Zed ziser nano series (Mc Malvern, USA).

IFN-gamma = system: IFN-gamma; design: species or system BALB/c mice; conditions: mouse, in vivo

Substance	positive coprocultures (excretion of ETEC) (strain H10407 of ETEC)	presence of diarrhea after the infection with ETEC (strain H10407 of ETEC)	increase of T CD4+ lymphocytes with regard to control group (T CD4+ lymphocytes)	response of T CD4+ lymphocytes (T CD4+ lymphocytes)	response of T CD8+ lymphocytes (T CD8+ lymphocytes)	increase of IL-4 production compared to the control group (IL-4)	increase of IL-10 compared to the control group (IL-10) [times]	children's sera that recognized the epitope [1] [%]	oligomeric structures formed (hydrodynamic diameter) (Dynamic light scattering)	increase of T CD4+ lymphocytes relative to the control (T CD4+ lymphocytes) [times]	response of INF-gamma (IFN-gamma)
CLE: 20 amino acid common linear epitope of ETEC CFA/I fimbria, amino acids 33 to 52, with terminal cysteine in position 53 (YSPASKTFESYRVMTQVHTC; not fully specified; also: disulfide at Cys20, partner not given here; listed as Escherichia coli)	100% and 50%	change of consistency of the feces	about 2 fold	slightly higher	slightly higher	about 2.6 times	0.8	100	trimeric structures	–	–
CTB	100% and 50%	inconsistency of feces up to the third day	–	–	very similar to the control group	–	–	–	–	0.4	considerable response
